According to patent US6921749B1, “Polypeptides derived from endostatin exhibiting antiangiogenic activity” (Universita' Degli Studi di Milano, priority 1999, dated 2005):
Where no end group is shown, it is not given here. The star is where a group is joined. tBu = CC(C)(C)*

Columns and labels:
[1] = tested on: coronary venular endothelial cells (CVEC); experiment: Proliferation studies (total cell number), postcapillary venule endothelial cells; type: cell-based, bovine; settings: 10 to 1000 ng/ml, 48 hr, FGF-2 and VEGF 20 ng/ml each
Description: The coronary venular endothelial cells (CVEC) were isolated and cultured as previously described (8).
Cell proliferation was quantified by total cell number as reported (12,13).
Cell proliferation was quantified by counting the total number of cells after 48 hr treatment. Endothelial cells isolated from postcapillary venules were used to test the effect on angiogenesis. […] The effect was more pronounced on FGF-2-induced growth. […] Similar effects were obtained on all the endothelial cell lines tested (FIG. 1E).
C-E: Effect of endostatin fragments on endothelial cell proliferation. Endothelial cell (C,D: CVEC; E, MAE) proliferation was stimulated with FGF-2 and VEGF (20 ng/ml each). Data are expressed as number of cells counted/well after 48 hr incubation with test substances. Numbers are means±SEM of 6 and 2 experiments run in triplicate for CVEC and ME, respectively.

[2] = tested on: mouse aorta rings; experiment: Vascular sprouting in vitro in three-dimensional fibrin gels; type: cell-based; settings: vascular rings in 3D fibrin gels, day 3
Method: Vascular sprouting from mouse aorta rings was assessed in three-dimensional fibrin gels preparations according to the method described by Brown et al (15), with minor modifications. Quantitative evaluation of newly formed structures was carried out at day 3. The area covered by vascular sprouts was quantified in microscopic units (0.21 mm^2).
The formation of capillary-like structures in vascular rings cultured in 3D fibrin gels was used to test angiogenesis in vitro. Fragment I and IV inhibited the spontaneous growth of capillaries and the one induced by FGF-2 and VEGF. As an example the effect of 100 ng/ml concentration of either fragment is shown (FIG. 3A).
FIG. 3: Effect of endostatin fragments on angiogenesis in vitro (A) and in vivo (B). A. In vitro vessel sprouting from rings of mouse aortas was induced by FGF-2 (10 ng/ml). Fragments I and IV were used at […]. Data are reported as mean area occupied by tubules-like structures after 3 days from stimulation. Numbers are means of one representative experiment out of two run in triplicate.

[3] = tested on: endothelial cells; experiment: In vitro inhibition test on endothelial cells proliferation and migration; type: cell-based
Description: These polypeptides have remarkable antiangiogenic activity in the in vitro inhibition test on endothelial cells proliferation and migration (16).

[4] = tested on: microvascular endothelial cells; settings: E. coli expressed protein; cited from earlier work

Substance | cell growth induced by FGF-2 and VEGF [1] | growth of capillaries induced by FGF-2 and VEGF [2] | spontaneous growth of capillaries [2] | potency compared with endostatin [3] | FGF-2 and VEGF induced proliferation and migration [4]
Cys-Glu-Thr-Trp-Arg-Thr-Glu-Thr-Thr-Gly-Ala-Thr-Gly-Gln-Ala-Ser-Ser-Leu-Leu-Ser-Gly-Arg-Leu-Leu-Glu-Gln-Lys-Ala-Ala-Ser-Cys-His-Asn-Ser-Tyr-Ile-Val-Leu-Cys(tBu)-Ile-Glu-Asn-Ser-Phe-Met-Thr-Ser-Phe-Ser-Lys (CETWRTETTGATGQASSLLSGRLLEQKAASCHNSYIVLC(tBu)IENSFMTSFSK; cysteine pairing not given here) [Fragment IV] | most potent | inhibited | inhibited | – | –
His-Thr-His-Gln-Asp-Phe-Gln-Pro-Val-Leu-His-Leu-Val-Ala-Leu-Asn-Thr-Pro-Leu-Ser-Gly-Gly-Met-Arg-Gly-Ile-Arg-Gly-Ala-Asp-Phe-Gln-Cys(tBu)-Phe-Gln-Gln-Ala-Arg-Ala (HTHQDFQPVLHLVALNTPLSGGMRGIRGADFQC(tBu)FQQARA) [Fragment I] | – | inhibited | inhibited | equipotential to endostatin | –
endostatin | – | – | – | – | able to block
